US9155761B2, “Method for the treatment of cancer” (UNIVERSITY COLLEGE CORK, NATIONAL UNIVERSITY OF IRELAND, …, priority 2009, dated 2015)
“Also recorded” adds a separate entry of the source. Read-outs that look alike come from different tables or passages of the source. Residues, ends and D or L forms follow the SMILES beside them. *: point of attachment. Cbz = O=C(OCc1ccccc1)*; CH2F = FC*

Experiments:
[1] = tested on: OE33; assay: Mitochondrial depolarization, JC-1 probe; type: cell-based, human; conditions: 48 hour treatment
Procedure: (§1) Mitochondrial membrane potential was determined using the JC-1 probe (Molecular Probes). In non-apoptotic cells, JC1 accumulates as aggregates in the mitochondria, which stain red (FL2; 590 nm). At the onset of apoptosis, a loss of mitochondrial membrane potential (ΔΨm) releases the aggregated JC1, returning it to its monomeric form, which stains the cytosol green (FL1; 530 nm). Therefore, fluorescence of the JC-1 probe in the FL-2 channel decreases as mitochondrial membrane integrity is lost, while the fluorescence in FL-1 channel increases. Cells were incubated in JC1 (7.5 μg/ml) at 37° C. for 15 mins, and washed prior to analysis by flow cytometry (FACScan, Becton Dickinson). Percentages denote the proportion of cells with depolarised mitochondria following 48 hour incubation with 5-Fluorouracil and represent at least three independent experiments.

[2] = tested on: OE21; assay: Mitochondrial depolarization, JC-1 probe; type: cell-based, human; conditions: 48 hour treatment
Procedure: as §1

[3] = tested on: OE19; assay: Mitochondrial depolarization, JC-1 probe; type: cell-based, human; conditions: 48 hour treatment
Procedure: as §1

[4] = tested on: KYSE450; assay: Mitochondrial depolarization, JC-1 probe; type: cell-based, human; conditions: 48 hour treatment
Procedure: as §1

[5] = tested on: OE21
Procedure: (§2) Morphological features of cells treated with 5-fluorouracil (5-FU)/cisplatin, without and with 3-MA, LY294002, Bafilomycin, Lithium chloride, rapamycin or HA14-I were examined by light microscopy. Morphologies of treated cells were examined 24 and 48 hours post treatment, treatment times are referred to in figure legends. Aliquots of vehicle control and drug treated cells were cytospun onto glass slides and stained with Rapi-Diff (Braidwood laboratories, UK). The extent of apoptotic and non-apoptotic cell death was determined by counting the cells in at least three fields of view per slide, with an average of ˜100 cells per field. Apoptotic cell death is characterized by the presence of two or more of the following morphological features: cell shrinkage, chromatin condensation, DNA degradation and fragmentation into ‘apoptotic bodies’, within an intact plasma membrane. Autophagic cell death was identified by clear elevation of cytoplasmic vesicles, loss of cytoplasmic material, pyknosis of the nuclear material and an intact nuclear membrane. Cytospin images are representative of at least three independent experiments.

[6] = tested on: LC3 in KYSE450 cells; assay: LC3 / GFP-LC3 processing and distribution (Western blot, fluorescence microscopy); type: cell-based, human
Procedure: (§3) Total cellular protein extracts were prepared by scraping the cells into modified RIPA buffer (50 mM Tris HCl (pH 7.4), 150 mM NaCl, 0.25% Sodium deoxycholate, 1% Igepal, protease inhibitors 1 mM EDTA, 1× Pefabloc, 1× protease inhibitor cocktail, 1 mM Na3VO4, 1 mM NaF). All protein samples were separated by SDS-PAGE (10/12%) and electrophoretically transferred onto nitrocellulose membrane. All primary antibodies were incubated overnight at 4° C.: anti-phospho mTOR (Ser 2448) and anti-p70^S6K (Thr 389) (Cell Signaling Technologies, UK), anti-Beclin-1 (BD Biosciences, UK) and anti-LC3 (Medical & Biological Laboratories, Japan). The membranes were incubated with the relevant horseradish peroxidase conjugated secondary antibodies (DakoCytomation, Dublin) and detected by chemiluminescence (ECL Amersham, UK).
(§4) To visualize and quantify the formation of autophagic vesicles, the green fluorescent protein (GFP)-LC3 (pEGFP-LC3) expression vector, kindly supplied by Dr. T. Yoshimori (National Institute of Genetics, Japan) was used. Cells were transiently transfected with the Amaxa electroporation system according to the supplier's protocol. Twenty-four hours post transfection, cells were treated with 5-FU and/or Cisplatin, fixed in 4% paraformaldehyde in PBS and transferred onto slides using a non-fluorescent fixative for analysis by fluorescence microscopy. Alternatively, Western Blot analysis was used to assess the expression and processing of LC3. […] The membrane sequestered, lipid-conjugated form of LC3-II remains with the autophagosome membrane after the vesicle has formed, and levels of both isoform are detected by Western Blot. Transfection efficiency was consistent for a given cell line, OE33 and KYSE450 cell lines (˜60-70%) compared to OE19 and OE21 cell lines (˜30%).

[7] = tested on: LC3 in OE21 cells; assay: as above; type: cell-based, human; conditions: 5-FU or cisplatin (images not shown)
Procedure: as §3, §4

[8] = tested on: LC3 in OE33 cells; assay: as above; type: cell-based, human
Procedure: as §3, §4

[9] = tested on: LC3 in OE19 cells; assay: as above; type: cell-based, human
Procedure: as §3, §4

[10] = tested on: KYSE450; type: cell-based, human
Procedure: (§5) Viability of esophageal cells was assessed using the MTT reduction assay. Cells are seeded at 2×10^4 (OE33/OE19) and 1×10^4 (OE21/KYSE450) cells per cm^2, treated for 48-96 hours and incubated for an additional 60 minutes at 37° C. in 0.5 mg/ml MTT dye. Viable, metabolizing cells reduce MTT dye, producing a dark formazan product, with absorbance read at 562 nm, reference wavelength 620 nm. To assess recovery, at 48 hours post treatment, in replicate plates (identical seeding & treatment times), all drugs were removed, culture medium was replaced, and these cells were cultured for a further 48-96 hours, to monitor their ability to recover and MTT assay was repeated.
(§6) In analysis of MTT data, values are presented as the Mean absorbance+/−Standard Error of the Mean (S.E.M) for four independent experiments. Statistical analysis was performed with paired Student's t-test. Values of p<0.05 were considered statistically significant. Asterisks indicate the level of significance.

[11] = tested on: OE33; assay: MTT viability and recovery assay; type: cell-based, human; conditions: 10 μM cisplatin, 48 hours
Procedure: as §5, §6

[12] = tested on: OE21; assay: MTT viability and recovery assay; type: cell-based, human
Procedure: as §5, §6

[13] = tested on: OE19; assay: MTT viability and recovery assay; type: cell-based, human; conditions: 10 μM cisplatin, 48 hours
Procedure: as §5, §6

[14] = tested on: active caspase-3 in OE19 cells; assay: Active caspase-3 by flow cytometry; type: cell-based, human; conditions: 48 hours after treatment
Procedure: (§7) To examine control and 5-Fluorouracil treated cells for evidence of caspase activity cells were processed by trypsinization, 48 hours after treatment. […] This was detected with an anti rabbit FITC conjugated secondary antibody, and samples were analyzed by FACScan at 530 nm (FL-1). Percentages indicate the proportion of cells with active caspase-3, detected as an increase in the number of FITC (FL-1) labelled cells.

[15] = tested on: active caspase-3 in OE33 cells; assay: Active caspase-3 by flow cytometry; type: cell-based, human; conditions: 48 hours after treatment
Procedure: as §7

[16] = tested on: active caspase-3 in KYSE450 cells; assay: Active caspase-3 by flow cytometry; type: cell-based, human; conditions: 48 hours after treatment, range of concentrations
Procedure: as §7

[17] = tested on: active caspase-3 in OE21 cells; assay: Active caspase-3 by flow cytometry; type: cell-based, human; conditions: 48 hours after treatment
Procedure: as §7

[18] = tested on: OE33; assay: Evaluation of cell death morphology by light microscopy; type: cell-based, human; conditions: 5-FU (50 μM) or cisplatin (40 μM), 48 hours
Procedure: as §2

[19] = tested on: OE19; assay: as above; type: cell-based, human
Procedure: as §2

[20] = tested on: KYSE450; assay: as above; type: cell-based, human
Procedure: as §2

[21] = tested on: OE33; assay: Monodansylcadaverine (MDC)-labelled vacuoles; type: cell-based, human; conditions: 25 μM
Procedure: (§8) MDC is an autofluorescent weak base that accumulates in acidic lysosomal vacuoles, showing high selectivity for autophagosomes, due to the high level of unhydrolyzed membrane lipids from engulfed organelles, which enhance MDC fluorescence. Cells were incubated with 0.1 mM MDC in PBS at 37° C. for 10 minutes (Biederbick et al., 1995), washed and immediately analyzed by fluorescent microscopy.

[22] = tested on: OE21; assay: Monodansylcadaverine (MDC)-labelled vacuoles; type: cell-based, human; conditions: 25 μM
Procedure: as §8

[23] = tested on: OE19; assay: Monodansylcadaverine (MDC)-labelled vacuoles; type: cell-based, human; conditions: 25 μM
Procedure: as §8

[24] = tested on: KYSE450; assay: Monodansylcadaverine (MDC)-labelled vacuoles; type: cell-based, human; conditions: 25 μM
Procedure: as §8

[25] = 5-FU (50 μM) or cisplatin (40 μM), 48 hours
[26] = 40 μM cisplatin, 48 hours (FIG. 1c)
[27] = 10 nM, 24 and 48 hours post treatment

`N.N.[Cl][Pt][Cl]` [cisplatin] was tested, and the “mitochondrial depolarization (JC-1)” value [1] was “mitochondrial depolarization”, the “mitochondrial depolarization (JC-1)” value [2] was “mitochondrial depolarization” and the “mitochondrial depolarization (JC-1)” value [3] was “do not show caspase-3 activity or mitochondrial membrane depolarization”. The “mitochondrial depolarization (JC-1)” value [4] was “do not show caspase-3 activity or mitochondrial membrane depolarization”, the apoptotic cell death ([5]; 40 μM cisplatin, 48 hours) was 31% and the non-apoptotic cell death ([5]; 40 μM cisplatin, 48 hours) was 3%. The cell death morphology [5, 25] was “predominantly apoptotic cell death morphology”, the “GFP-LC3 distribution (fluorescence microscopy)” value (“GFP-LC3 distribution” for short) ([6]; 5-FU or cisplatin (data not shown)) was “Redistribution of GFP-LC3 from a diffuse cytosolic to a punctate autophagosome-associated pattern” and the “GFP-LC3 distribution” value [7] was “Diffuse cytoplasmic localization of GFP-LC3”. The “GFP-LC3 distribution” value ([8]; 5-FU or cisplatin (images not shown)) was “Diffuse cytoplasmic localization of GFP-LC3”, the “GFP-LC3 distribution” value ([9]; 5-FU (25 & 50 μM) or cisplatin (10 & 25 μM)) was “Redistribution of GFP-LC3 from a diffuse cytosolic to a punctate autophagosome-associated pattern; also recorded: bright punctate patterns of GFP-LC3 fluorescence” and the “cell viability (MTT)” value ([10]; 10 μM cisplatin, 48 hours) was “only marginally affected”. The “cell viability (MTT)” value [11] was “significant effects on cell viability”, the “cell viability (MTT)” value ([12]; 10 μM cisplatin, 48 hours) was “significant effects on cell viability” and the “cell viability (MTT)” value [13] was “only marginally affected”. The “active caspase-3” value [14] was “do not show caspase-3 activity”, the “active caspase-3” value [15] was “displayed active caspase-3” and the “active caspase-3” value [16] was “do not show caspase-3 activity”. For the same compound, the “active caspase-3” value [17] was “displayed active caspase-3”, the cell death morphology [18] was “predominantly apoptotic cell death morphology” and the apoptosis [19, 26] was 0.5%. For the same compound, the non-apoptotic cell death [19, 26] was 38%, the cell death morphology [19, 25] was “predominantly non-apoptotic morphology” and the cell death morphology [20, 25] was “predominantly non-apoptotic morphology”. For the same compound, the MDC staining pattern [21] was “MDC staining patterns are diffuse”, the MDC staining pattern [22] was “MDC staining patterns are diffuse” and the MDC staining pattern [23] was “accumulation of MDC (bright blue punctate staining) throughout the cytoplasm”. The MDC staining pattern [24] was “accumulation of MDC (bright blue punctate staining) throughout the cytoplasm”.

`COC(=O)C[C@H](NC(=O)[C@H](C)NC(=O)[C@@H](NC(=O)OCc1ccccc1)C(C)C)C(=O)CF` [zVAD-fmk] (Cbz-Val-Ala-Asp(OMe)-CH2F) was tested, and the “inhibition of apoptosis induced by 5-FU” value ([5]; zVAD-fmk (25 μM) for 2 hours prior to 5-FU treatment) was “completely inhibited”.

With `Cn1cnc(N)c2ncnc1-2` [3-MA, 3-Methyladenine] the morphology ([5]; 3-MA without and with 5-FU (30 μM), 48 hours) was “did not significantly affect morphology” and the morphology ([20]; 3-MA (10.0 μM) without and with 5-FU (50 μM), 48 hours) was “did not significantly affect morphology”.

`CCOC(=O)C1=C(N)Oc2ccc(Br)cc2C1C(C#N)C(=O)OCC` (stereo not drawn) [HA14-1] was tested, and the morphology ([20]; HA14-1 (5 μM) and/or 5-FU (50 μM), 24 hours) was “rarely causes apoptosis”, the morphology ([20]; HA14-1 (5 μM) and/or 5-FU (50 μM), 24 hours, listed as HA14-I) was “the induction of apoptosis is observed, but at very low levels” and the morphology ([20]; HA14-1 (10 μM) without and with 5-FU (50 μM), 24 hours) was “the induction of apoptosis is apparent, but again at low levels”. For the same compound, the morphology ([20]; HA14-1 (20 μM), 24 hours) was “rarely causes apoptosis”, the morphology ([20]; HA14-1 (20 μM), 24 hours, listed as HA14-I) was “the induction of apoptosis is apparent, but again at low levels” and the morphology ([20]; HA14-1 (30 μM), 24 hours) was “apoptotic cells are visible”. For the same compound, the morphology ([20]; HA14-1 (30 μM), 24 hours, listed as HA14-I) was “induced clear levels of apoptotic cell death”, the morphology ([20]; HA14-1 (30 μM), 48 hours) was “apoptotic cells are visible” and the morphology ([20]; HA14-1 (30 μM), 48 hours, listed as HA14-I) was “induced clear levels of apoptotic cell death”.

`CO/C1=C\C(C)=C\[C@@H](C)[C@@H](O)[C@@H](C)C/C(C)=C/C=C/[C@H](OC)[C@@H]([C@@H](C)[C@@H](O)[C@H](C)[C@@]2(O)C[C@@H](O)[C@H](C)[C@@H](C(C)C)O2)OC1=O` [Bafilomycin, Bafilomycin A1] was tested, and the morphology ([5]; Bafilomycin 1.0 nM alone or with 5-FU (30 μM)) was “significant levels of vesicular accumulation”, the “levels of endogenous LC3 (Western blot)” value [6, 27] was “induced an accumulation in the levels of endogenous LC3” and the “levels of endogenous LC3 (Western blot)” value [8, 27] was “induced an accumulation in the levels of endogenous LC3”. The “GFP-LC3 distribution” value ([9]; 10 nM bafilomycinA1, 24 and 48 hours) was “accumulation of GFP-LC3 tagged autophagosomes”, the “cytotoxicity (MTT)” value ([10]; Bafilomycin 100 nM) was “cytotoxic alone” and the “viability (MTT)” value ([10]; Bafilomycin 10-100 nM) was “reduction in MTT”. For the same compound, the “cell death (MTT)” value [12] was “induced significant cell death” and the morphology ([20]; Bafilomycin 10.0 nM alone or with 5-FU (50 μM)) was “significant levels of vesicular accumulation”.
